Entries after “also recorded” stand apart in the source; their conditions may differ.
Experiments:
ERCC1, XPD, XRCC1 = ERCC1, XPD, XRCC1 mRNA / protein levels in A2780-CP70 cells; assay type: cell-based, human; details: A2780-CP70
c-fos = c-fos mRNA (semi-quantitative PCR) and protein in A2780-CP70 cells; assay type: cell-based, human
OPN [1] = experiment: Secreted OPN protein, immunoblot of conditioned medium, MDA-MB-435; assay type: cell-based, human; details: 10 μM and 20 μM cyclopamine
Procedure: Stable vector only and non-targeting (scrambled control) transfectants were also generated. Stable transfectants were selected on medium supplemented with 500 μg/ml Geneticin (Invitrogen). The four GLI1-knocked down clones chosen were based on the extent of GLI1 knockdown and were termed KO1, KO2, KO3, and KO4. The expression of OPN was restored in the KO1 cells by transfecting with pcDNA3.1-OPN. A corresponding vector-only transfectant was also generated. Transfectants were selected on medium containing Geneticin (500 μg/ml) and hygromycin (750 μg/ml). Serum-free conditioned medium harvested from approximately 3.0×10^6 cells after 24 hr was assayed for OPN by immunoblotting.
Western Blotting Analysis—Whole cell lysates were collected in Nonidet P-40 buffer (150 mM NaCl, 50 mM Tris, 1% Nonidet P-40). Isolation of cytosolic and nuclear fractions was done as previously reported (15). Total protein (30 μg) was resolved by SDS-PAGE gel and transferred to polyvinylidene difluoride membranes. […] Secreted OPN was assessed by loading an equal quantity of protein from the serum-free conditioned medium. […]

OPN [2] = experiment: OPN expression in pre-osteoclastic RAW264.7 cells; assay type: cell-based, murine
Procedure: Western Blotting Analysis—Whole cell lysates were collected in NP-40 buffer (150 mM NaCl, 50 mM Tris, 1% NP-40). Total protein (30 μg) was resolved by SDS-PAGE gel and transferred to PVDF membranes. Membranes were immunoblotted overnight at 4° C. with antibodies to either SHH (Santacruz, Calif., USA) or IHH (Santacruz). Equal loading was confirmed with anti-β-tubulin (Cell Signaling, Danvers, Mass.). To assess OPN expression upon SHH treatment, […] were grown in 6-well plates in the presence of SHH. After 24 hours the cells were lysed in NP-40 buffer and 30 μg of each experimental group assessed by immunoblotting. To assess for the expression of OPN, MMP9 and CTSK, at the end of Day 6 of differentiation, all the different experimental groups were kept in serum free medium for 24 hrs and both, the conditioned media and whole cell lysates were collected and immunoblotted using antibodies to either anti-mouse OPN (Millipore, Bedford, Mass.), or CTSK (SantaCruz Biotech). Equal loading was confirmed with anti-β-actin (Sigma) antibody. Secreted MMP9 (Santa Cruz Biotech) was assessed by loading equal quantity of protein from the serum-free conditioned medium. […] Detection and quantification of proteins was done using Fuji LAS 3000 apparatus and Multigauge V3.1 software (Fujifilm, Valhalla, N.Y.). Band intensities were measured in arbitrary Units (AU). […]
Luciferase Assay—Cells were co-transfected with the OPN promoter construct, pGL3-OPNB and pSV-β-galactosidase (Promega) (Das, S., et al. (2009) J Biol Chem 284, 22888-22897). […] Readings were normalized to β-galactosidase. […]
Quantitative RT-PCR (qRT-PCR)-cDNA was generated using High Capacity Reverse Transcriptase Kit (Applied Biosystems, Foster City, Calif.). […] Following the experimental regime as described herein (for Osteoclast differentiation/activity) RNA was isolated using Trizol (Invitrogen) and assessed as describere herein. […]

## CC1=C2C[C@H]3[C@@H](CC=C4C[C@@H](O)CC[C@@]43C)[C@@H]2CC[C@]12O[C@@H]1C[C@H](C)CN[C@H]1[C@H]2C [cyclopamine]
ERCC1, XPD, XRCC1; IC50 cyclopamine 24 hours, then 30 μM cisplatin 1 hour (data not shown)
  ERCC1, XPD, XRCC1 mRNA upregulation over baseline: approximately 2 fold
ERCC1, XPD, XRCC1; cyclopamine pretreatment vs cisplatin alone
  time of highest ERCC1, XPD, XRCC1 mRNA levels after cisplatin exposure: 24 h
ERCC1, XPD, XRCC1; levels associated with 50% cell killing, 6-72 hr
  ERCC1, XPD, XRCC1 mRNA levels after agent alone: no increase; also recorded: no detected effect
c-fos; 70 μM cyclopamine, vs 0 hr
  c-fos mRNA peak level: 27 fold
c-fos; A2780-CP70, cyclopamine-treated
  c-fos protein level: increased substantially at 6 hr
OPN [1]
  OPN protein in the secretome: decreased levels of OPN protein

## SHH: recombinant Sonic hedgehog ligand (R & D Systems)
OPN [2]; 24 hours post SHH
  OPN protein levels: increased protein levels of OPN
OPN [2]; 24 hours post-SHH
  OPN promoter activity: increase in the activity of the OPN promoter
OPN [2]; recombinant SHH
  OPN mRNA levels: dose-dependent significant (p<0.0001) increase in OPN mRNA levels
